Measured values taken from PubChem BioAssay (NCI).
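In this assay, cells in 96-well plates receive the compound at five concentrations for 48 hours. Endpoints are linearly interpolated between the surrounding concentrations. TGI denotes the concentration required for complete inhibition of growth.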

Legend:
Assay in all cases: NCI tumour cell line growth inhibition, 48 h
OVCAR-5 ovarian = test system: OVCAR-5 ovarian
UO-31 renal = test system: UO-31 renal
A549 NSCLC = test system: A549 NSCLC
SF-295 CNS = test system: SF-295 CNS
MALME-3M melanoma = test system: MALME-3M melanoma
HOP-62 NSCLC = test system: HOP-62 NSCLC
RXF 393 renal = test system: RXF 393 renal
MCF7 breast = test system: MCF7 breast
SK-MEL-5 melanoma = test system: SK-MEL-5 melanoma
K-562 leukemia = test system: K-562 leukemia

Measured: TGI

CC1CCOc2ccc(cc2)C=Nc2ccc(cc2)CCc2ccc(cc2)N=Cc2ccc(cc2)OCC1 (stereo not given)
> 100 µM: all assays above

Cc1cc(C)cc(Nc2cc(=O)[nH]c(=O)[nH]2)c1
> 100 µM: all assays above

CC1=NN(c2ccc(S(=O)(=O)O)cc2)C2(C1)SCC(=O)N2c1nc2ccccc2s1 (stereo not given)
> 100 µM: all assays above

COc1ccc(Nc2nc(NS(=O)(=O)c3cc(C)c(Cl)cc3S)n[nH]2)cc1
> 100 µM: all assays above
